Key:
FGFR1 = biological target: T1, FGFR1 (Homo sapiens, UniProt P11362); experiment: Kinase binding assay (kinase-tagged T7 phage, affinity beads, qPCR readout), FGFR1; conditions: FGFR binding data
T1 construct: made in house; host or cells: E. coli derived from BL21, infected with T7 phage
Summary of the method: (§1)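 First, streptavidin beads were loaded with biotinylated ligand and blocked. Kinase, beads and compound were then shaken together for 1 hour at room temperature in SeaBlock/PBS/Tween/DTT buffer. Finally, eluted kinase was measured by qPCR and Kd fitted with Hill slope −1.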

FGFR2 = biological target: T2, FGFR2 (Homo sapiens, UniProt P21802); experiment: Kinase binding assay (kinase-tagged T7 phage, affinity beads, qPCR readout), FGFR2; conditions: FGFR binding data
T2 construct: made in house; host or cells: E. coli derived from BL21, infected with T7 phage
T2 sequence (P21802 22-821): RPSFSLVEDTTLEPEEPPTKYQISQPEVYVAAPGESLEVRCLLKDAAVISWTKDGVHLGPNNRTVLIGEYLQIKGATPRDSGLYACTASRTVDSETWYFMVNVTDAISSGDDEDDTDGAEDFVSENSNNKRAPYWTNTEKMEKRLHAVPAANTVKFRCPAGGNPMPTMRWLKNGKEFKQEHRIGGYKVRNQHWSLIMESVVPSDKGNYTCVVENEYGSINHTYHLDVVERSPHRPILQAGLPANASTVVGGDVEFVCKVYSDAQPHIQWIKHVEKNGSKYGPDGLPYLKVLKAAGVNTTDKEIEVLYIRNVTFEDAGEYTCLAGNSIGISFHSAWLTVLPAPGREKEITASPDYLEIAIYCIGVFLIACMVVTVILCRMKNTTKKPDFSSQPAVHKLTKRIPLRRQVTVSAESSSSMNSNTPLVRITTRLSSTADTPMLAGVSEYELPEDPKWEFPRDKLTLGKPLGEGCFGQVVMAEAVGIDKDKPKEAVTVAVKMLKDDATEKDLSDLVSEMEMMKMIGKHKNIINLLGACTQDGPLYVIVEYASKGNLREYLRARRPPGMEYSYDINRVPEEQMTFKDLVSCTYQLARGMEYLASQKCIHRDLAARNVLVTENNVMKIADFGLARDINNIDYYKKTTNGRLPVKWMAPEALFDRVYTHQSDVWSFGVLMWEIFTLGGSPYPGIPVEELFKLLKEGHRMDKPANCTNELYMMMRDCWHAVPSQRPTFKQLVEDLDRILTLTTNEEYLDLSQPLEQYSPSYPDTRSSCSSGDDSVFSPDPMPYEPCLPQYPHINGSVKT
Summary of the method: as §1

FGFR3 = biological target: T3, FGFR3 (Homo sapiens, UniProt P22607); experiment: Kinase binding assay (kinase-tagged T7 phage, affinity beads, qPCR readout), FGFR3; conditions: FGFR binding data
T3 construct: made in house; host or cells: E. coli derived from BL21, infected with T7 phage
T3 sequence (P22607 23-806): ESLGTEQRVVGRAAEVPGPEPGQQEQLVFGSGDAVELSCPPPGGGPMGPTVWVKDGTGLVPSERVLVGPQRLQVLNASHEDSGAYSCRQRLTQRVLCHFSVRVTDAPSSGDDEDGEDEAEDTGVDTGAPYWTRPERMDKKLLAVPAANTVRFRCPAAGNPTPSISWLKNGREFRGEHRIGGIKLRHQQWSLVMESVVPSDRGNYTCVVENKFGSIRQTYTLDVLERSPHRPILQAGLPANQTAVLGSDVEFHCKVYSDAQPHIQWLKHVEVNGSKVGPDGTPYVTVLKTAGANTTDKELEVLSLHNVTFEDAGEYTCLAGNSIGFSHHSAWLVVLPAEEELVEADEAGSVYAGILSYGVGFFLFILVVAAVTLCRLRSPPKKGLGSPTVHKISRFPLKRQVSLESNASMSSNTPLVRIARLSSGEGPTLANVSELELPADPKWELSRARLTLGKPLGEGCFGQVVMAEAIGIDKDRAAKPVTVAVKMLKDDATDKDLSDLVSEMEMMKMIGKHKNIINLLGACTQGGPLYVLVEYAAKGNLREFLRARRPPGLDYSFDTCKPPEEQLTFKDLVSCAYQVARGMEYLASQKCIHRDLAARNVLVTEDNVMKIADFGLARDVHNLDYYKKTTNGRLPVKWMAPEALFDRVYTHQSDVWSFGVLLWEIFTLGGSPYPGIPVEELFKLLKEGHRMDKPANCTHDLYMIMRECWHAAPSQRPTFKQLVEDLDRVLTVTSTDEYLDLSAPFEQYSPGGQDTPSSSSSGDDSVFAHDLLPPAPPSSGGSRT
Summary of the method: as §1

FGFR3 (V555M) = biological target: T4, FGFR3 (V555M) (Homo sapiens, UniProt P22607, V555M); experiment: Kinase binding assay (kinase-tagged T7 phage, affinity beads, qPCR readout), FGFR3 (V555M); conditions: FGFR binding data
T4 construct: made in house; host or cells: E. coli derived from BL21, infected with T7 phage
T4 sequence (P22607 23-806 V555M): as the sequence (P22607 23-806) above, with V533M counted along it
Summary of the method: as §1

[1] = system: SNU-16 (Gastric Carcinoma), FGFR2 amplification; experiment: Cancer cell viability assay (Cell Titer-Glo), SNU-16; assay type: cell-based; conditions: Homo sapiens, SNU-16 cells, 72 hours, read-out: SNU16 FGFR2 (IC50 nM)
From the text: RT112/84, UM-UC-14, SNU-16 and KG-1 Cancer Cell Line Cell Viability Assays
To detect the change of intracellular ATP by Cell Titer-Glo@ and to evaluate the inhibitory effect of the compounds on cancer cell lines by determining the in vitro IC50 value of the compounds.
Cell Titer-Glo@ 2.0 Luminescent cell viability assay reagent was purchased from Promega (Madison, WI). RT112/84, SNU-16, and KG-1 cell lines were purchased from American Type Culture Collection (Manassas, VA). UM-UC-14 cell line was purchased from Sigma (St. Louis, MO). RT112/84, UM-UC-14, SNU-16, and KG-1 cells were cultured in RPMI1640 media supplemented with 10% fetal bovine serum. Cultures were maintained at 37° C. in a humidified atmosphere of 5% CO2 and 95% air.
Cell Viability Assay Procedure: Cells were plated in 96-well clear bottom/white plates (Corning #3903) at 10,000 cells/well in 100 μl of media, incubated overnight. The next day, test compound DMSO stock solutions were made at 10 mM and 2 μM final concentration. Compounds were then added to cells in a 9-dose, […] dilution series starting at 30 μM with an HP 300e Digital Dispenser (each dose was applied in triplicate). DMSO was backfilled to each well up to 301 nL total volume of test compound+DMSO, and a total of 301 nL DMSO was added to a control/no test compound well in triplicate. The cells in cell culture plates were incubated with the compounds at 37° C. and 5% CO2 for 72 hours. Then 50 μl of Cell Titer Glo 2.0 reagent was added to each well of the cell culture plates. The contents were covered from light and mixed on an orbital shaker at room temperature for 10 min. Luminescence was recorded by a Synergy H1 Microplate Reader (Biotek, Winooski, VT). Cells were assessed as a percentage of DMSO only treated control cells. Curves were plotted and IC50 values were calculated using the GraphPad Prism 8 program based on a sigmoidal dose-response equation (4 parameter).

T1 sequence (P11362 22-822): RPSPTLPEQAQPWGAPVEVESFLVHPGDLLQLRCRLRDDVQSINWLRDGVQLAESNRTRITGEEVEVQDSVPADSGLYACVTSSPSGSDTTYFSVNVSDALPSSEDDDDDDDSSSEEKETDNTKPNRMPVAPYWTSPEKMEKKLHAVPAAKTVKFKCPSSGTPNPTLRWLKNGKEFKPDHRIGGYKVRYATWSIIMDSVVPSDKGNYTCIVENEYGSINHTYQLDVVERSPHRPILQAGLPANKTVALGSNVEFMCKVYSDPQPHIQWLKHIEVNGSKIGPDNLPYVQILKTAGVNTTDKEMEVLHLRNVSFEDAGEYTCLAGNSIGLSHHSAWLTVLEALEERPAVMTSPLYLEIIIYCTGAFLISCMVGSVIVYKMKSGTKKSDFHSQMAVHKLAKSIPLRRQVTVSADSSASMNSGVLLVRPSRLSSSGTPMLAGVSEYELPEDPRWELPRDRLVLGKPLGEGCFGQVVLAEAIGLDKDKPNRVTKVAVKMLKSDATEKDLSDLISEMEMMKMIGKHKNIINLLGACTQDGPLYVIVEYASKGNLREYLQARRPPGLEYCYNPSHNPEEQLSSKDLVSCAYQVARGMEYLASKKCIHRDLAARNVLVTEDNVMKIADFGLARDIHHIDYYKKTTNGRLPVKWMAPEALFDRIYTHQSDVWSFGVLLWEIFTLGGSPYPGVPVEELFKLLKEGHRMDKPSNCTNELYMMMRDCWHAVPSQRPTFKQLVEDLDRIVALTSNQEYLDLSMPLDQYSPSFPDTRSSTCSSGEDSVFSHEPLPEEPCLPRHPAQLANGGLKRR

C=CC(=O)Nc1cnc2c(c1)c(C)cn2-c1nc(Nc2ccn(C)n2)ncc1C [Example 97, N-[3-methyl-1-[5-methyl-2-[(1-methylpyrazol-3-yl)amino]pyrimidin-4-yl]pyrrolo[2,3-b]pyridin-5-yl]prop-2-enamide]
0.1 to 100 nM: Kd (FGFR1) | Kd (FGFR2) | Kd (FGFR3) | Kd (FGFR3 (V555M)) | IC50 [1]

C=CC(=O)Nc1ccc2c(c1)c(C)cn2-c1nc(Nc2ccn(CCO)n2)ncc1C [Example 100, N-[1-[2-[[1-(2-hydroxyethyl)pyrazol-3-yl]amino]-5-methyl-pyrimidin-4-yl]-3-methyl-indol-5-yl]prop-2-enamide]
0.1 to 100 nM: Kd (FGFR1) | Kd (FGFR2) | Kd (FGFR3) | Kd (FGFR3 (V555M)) | IC50 [1]

C=CC(=O)Nc1ccc2c(c1)c(C)cn2-c1nc(Nc2cc(C)n(C)n2)ncc1C [Example 102, N-[1-[2-[(1,5-dimethylpyrazol-3-yl)amino]-5-methyl-pyrimidin-4-yl]-3-methyl-indol-5-yl]prop-2-enamide]
0.1 to 100 nM: Kd (FGFR1) | Kd (FGFR2) | Kd (FGFR3) | Kd (FGFR3 (V555M)) | IC50 [1]

C=CC(=O)Nc1ccc2c(-c3ccnc(Nc4cc(C)n(C)n4)n3)cn(C)c2c1 [Example 103, N-[3-[2-[(1,5-dimethylpyrazol-3-yl)amino]pyrimidin-4-yl]-1-methyl-indol-6-yl]prop-2-enamide]
0.1 to 100 nM: Kd (FGFR3) | IC50 [1]
100 to 250 nM: Kd (FGFR2) | Kd (FGFR3 (V555M))
250 to 1000 nM: Kd (FGFR1)

Cc1cnc(Nc2ccnn2C)nc1-n1cc(C)c2cc(NC(=O)/C=C/CN(C)C)ccc21 [Example 107, (E)-4-(dimethylamino)-N-[3-methyl-1-[5-methyl-2-[(2-methylpyrazol-3-yl)amino]pyrimidin-4-yl]indol-5-yl]but-2-enamide]
100 to 250 nM: Kd (FGFR2)
0.1 to 100 nM: Kd (FGFR3) | Kd (FGFR3 (V555M)) | IC50 [1]
250 to 1000 nM: Kd (FGFR1)

C=CC(=O)Nc1ccc2c(c1)c(C)cn2-c1nc(Nc2ccn(C3COC3)n2)ncc1C [Example 120, N-[3-methyl-1-[5-methyl-2-[[1-(oxetan-3-yl)pyrazol-3-yl]amino]pyrimidin-4-yl]indol-5-yl]prop-2-enamide]
0.1 to 100 nM: Kd (FGFR1) | Kd (FGFR2) | Kd (FGFR3) | Kd (FGFR3 (V555M)) | IC50 [1]

Cc1cnc(Nc2cnn(CCO)c2)nc1-n1cc(C)c2cc(NC(=O)/C=C/CN(C)C)ccc21 [Example 122, (E)-4-(dimethylamino)-N-[1-[2-[[1-(2-hydroxyethyl)pyrazol-4-yl]amino]-5-methyl-pyrimidin-4-yl]-3-methyl-indol-5-yl]but-2-enamide]
0.1 to 100 nM: Kd (FGFR1) | Kd (FGFR2) | Kd (FGFR3) | Kd (FGFR3 (V555M)) | IC50 [1]

C=CC(=O)Nc1ccc2c(c1)c(C)cn2-c1nc(Nc2cc(C)[nH]n2)ncc1C [Example 123, N-[3-methyl-1-[5-methyl-2-[(5-methyl-1H-pyrazol-3-yl)amino]pyrimidin-4-yl]indol-5-yl]prop-2-enamide]
0.1 to 100 nM: Kd (FGFR1) | Kd (FGFR2) | Kd (FGFR3) | Kd (FGFR3 (V555M)) | IC50 [1]

C=CC(=O)Nc1cnc2c(c1)c(C)cn2-c1nc(Nc2cc(C)n(C(=O)OC(C)(C)C)n2)ncc1C [Example 124, tert-butyl 5-methyl-3-[[5-methyl-4-[3-methyl-5-(prop-2-enoylamino)pyrrolo[2,3-b]pyridin-1-yl]pyrimidin-2-yl]amino]pyrazole-1-carboxylate]
100 to 250 nM: Kd (FGFR1) | Kd (FGFR2)
0.1 to 100 nM: Kd (FGFR3) | Kd (FGFR3 (V555M)) | IC50 [1]

C=CC(=O)Nc1cnc2c(c1)c(C)cn2-c1nc(Nc2cnn(CCO)c2)ncc1C [Example 125, N-[1-[2-[[1-(2-hydroxyethyl)pyrazol-4-yl]amino]-5-methyl-pyrimidin-4-yl]-3-methyl-pyrrolo[2,3-b]pyridin-5-yl]prop-2-enamide]
0.1 to 100 nM: Kd (FGFR1) | Kd (FGFR2) | Kd (FGFR3) | Kd (FGFR3 (V555M)) | IC50 [1]

C=CC(=O)Nc1ccc2c(-c3nc(Nc4cnn(CCO)c4)ncc3C)cn(C)c2c1 [Example 126, N-[3-[2-[[1-(2-hydroxyethyl)pyrazol-4-yl]amino]-5-methyl-pyrimidin-4-yl]-1-methyl-indol-6-yl]prop-2-enamide]
0.1 to 100 nM: Kd (FGFR1) | Kd (FGFR2) | Kd (FGFR3) | Kd (FGFR3 (V555M)) | IC50 [1]

C=CC(=O)Nc1ccc2c(-c3nc(Nc4cnn(CCO)c4)ncc3Cl)cn(C)c2c1 [Example 127, N-[3-[5-chloro-2-[[1-(2-hydroxyethyl)pyrazol-4-yl]amino]pyrimidin-4-yl]-1-methyl-indol-6-yl]prop-2-enamide]
0.1 to 100 nM: Kd (FGFR1) | Kd (FGFR2) | Kd (FGFR3) | Kd (FGFR3 (V555M)) | IC50 [1]

C=CC(=O)Nc1ccc2c(-c3nc(Nc4cnn(CCO)c4)ncc3F)cn(C)c2c1 [Example 128, N-[3-[5-fluoro-2-[[1-(2-hydroxyethyl)pyrazol-4-yl]amino]pyrimidin-4-yl]-1-methyl-indol-6-yl]prop-2-enamide]
0.1 to 100 nM: Kd (FGFR1) | Kd (FGFR2) | Kd (FGFR3) | Kd (FGFR3 (V555M)) | IC50 [1]

Cc1cn(-c2nc(Nc3cnn(CCO)c3)ncc2F)c2ccc(NC(=O)/C=C/CN(C)C)cc12 [Example 144, (E)-4-(dimethylamino)-N-[1-[5-fluoro-2-[[1-(2-hydroxyethyl)pyrazol-4-yl]amino]pyrimidin-4-yl]-3-methyl-indol-5-yl]but-2-enamide]
0.1 to 100 nM: Kd (FGFR1) | Kd (FGFR2) | Kd (FGFR3) | Kd (FGFR3 (V555M)) | IC50 [1]

C=CC(=O)Nc1ccc2c(c1)c(C)cn2-c1nc(Nc2cnn(C)c2C)ncc1C [Example 147, N-[1-[2-[(1,5-dimethylpyrazol-4-yl)amino]-5-methyl-pyrimidin-4-yl]-3-methyl-indol-5-yl]prop-2-enamide]
0.1 to 100 nM: Kd (FGFR1) | Kd (FGFR2) | Kd (FGFR3) | Kd (FGFR3 (V555M)) | IC50 [1]

C=CC(=O)Nc1ccc2c(c1)c(C)cn2-c1nc(Nc2cnsc2)ncc1F [Example 148, N-[1-[5-fluoro-2-(isothiazol-4-ylamino)pyrimidin-4-yl]-3-methyl-indol-5-yl]prop-2-enamide]
0.1 to 100 nM: Kd (FGFR1) | Kd (FGFR2) | Kd (FGFR3) | Kd (FGFR3 (V555M)) | IC50 [1]

C=CC(=O)Nc1ccc2c(c1)c(C)cn2-c1nc(Nc2cn(C(F)F)nc2C)ncc1F [Example 149, N-[1-[2-[[1-(difluoromethyl)-3-methyl-pyrazol-4-yl]amino]-5-fluoro-pyrimidin-4-yl]-3-methyl-indol-5-yl]prop-2-enamide]
100 to 250 nM: Kd (FGFR1)
0.1 to 100 nM: Kd (FGFR2) | Kd (FGFR3) | Kd (FGFR3 (V555M)) | IC50 [1]

C=CC(=O)Nc1ccc2c(c1)c(C)cn2-c1nc(Nc2cnc(C)nc2C)ncc1F [Example 150, N-[1-[2-[(2,4-dimethylpyrimidin-5-yl)amino]-5-fluoro-pyrimidin-4-yl]-3-methyl-indol-5-yl]prop-2-enamide]
100 to 250 nM: Kd (FGFR3 (V555M))
250 to 1000 nM: Kd (FGFR1)
0.1 to 100 nM: Kd (FGFR2) | Kd (FGFR3) | IC50 [1]

C=CC(=O)Nc1ccc2c(c1)c(C)cn2-c1nc(Nc2cccnc2C)ncc1F [Example 153, N-[1-[5-fluoro-2-[(2-methyl-3-pyridyl)amino]pyrimidin-4-yl]-3-methyl-indol-5-yl]prop-2-enamide]
100 to 250 nM: Kd (FGFR2)
0.1 to 100 nM: Kd (FGFR3) | Kd (FGFR3 (V555M)) | IC50 [1]
250 to 1000 nM: Kd (FGFR1)
